What all share (assay): relative viability (nuclei count vs DMSO), 5 days (fraction); higher = more cells survive
Compound in the assay “BI-D1870 + Linsitinib”: CC(C)CCN1c2nc(Nc3cc(F)c(O)c(F)c3)ncc2N(C)C(=O)C1C [BI-D1870] + C[C@]1(O)C[C@@H](c2nc(-c3ccc4ccc(-c5ccccc5)nc4c3)c3c(N)nccn32)C1 [Linsitinib] (partner 1 µM)
An outline of the steps:
(§1)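 Relative viability equals treated-well nuclei counts divided by vehicle-well nuclei counts. Counts came from 4× images of lung cancer cell lines grown in 1536-well plates for 5 days after pin-tool dosing on the day after seeding. Dosing used one drug alone or a fixed anchor-drug dose plus five library-drug doses (not always all listed) in √10 steps, and values are medians of duplicate plates.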

Compound in the assay “BI-D1870 + Olaparib”: CC(C)CCN1c2nc(Nc3cc(F)c(O)c(F)c3)ncc2N(C)C(=O)C1C [BI-D1870] + O=C(c1cc(Cc2n[nH]c(=O)c3ccccc23)ccc1F)N1CCN(C(=O)C2CC2)CC1 [Olaparib] (partner 8 µM)
Put shortly: as §1

Compound in the assay “Zebularine + Trametinib”: O=c1ncccn1[C@@H]1O[C@H](CO)[C@@H](O)[C@H]1O [Zebularine] + CC(=O)Nc1cccc(-n2c(=O)n(C3CC3)c(=O)c3c(Nc4ccc(I)cc4F)n(C)c(=O)c(C)c32)c1 [Trametinib] (partner 0.02 µM)
Put shortly:
as §1

Compound in the assay “Zebularine + Phenformin”: O=c1ncccn1[C@@H]1O[C@H](CO)[C@@H](O)[C@H]1O [Zebularine] + N=C(N)NC(=N)NCCc1ccccc1 [Phenformin] (partner 250 µM)
Put shortly:
as §1

Take UMC-11: the relative viability with BI-D1870 + Linsitinib (first compound 0.04 µM) came to 1.06; in the assay with BI-D1870 + Linsitinib (first compound 0.1265 µM), 0.924; with BI-D1870 + Linsitinib (first compound 0.4 µM) it was 0.972; in the assay with BI-D1870 + Linsitinib (first compound 1.265 µM) it was 1.06; with BI-D1870 + Linsitinib (first compound 4 µM) it was 0.693; with BI-D1870 + Olaparib (first compound 0.04 µM), 0.36. Also, the relative viability is 0.363 in the assay with BI-D1870 + Olaparib (first compound 0.1265 µM); 0.369 with BI-D1870 + Olaparib (first compound 0.4 µM); 0.374 with BI-D1870 + Olaparib (first compound 1.265 µM); 0.204 with BI-D1870 + Olaparib (first compound 4 µM); 0.709 with Zebularine + Trametinib (first compound 1 µM); 0.754 with Zebularine + Trametinib (first compound 3.162 µM). Also, the relative viability with Zebularine + Trametinib (first compound 10 µM) is 0.422; in the assay with Zebularine + Trametinib (first compound 31.62 µM), 0.644; with Zebularine + Trametinib (first compound 100 µM), 0.376; with Zebularine + Phenformin (first compound 1 µM) it was 0.282; with Zebularine + Phenformin (first compound 3.162 µM), 0.344; with Zebularine + Phenformin (first compound 10 µM) it was 0.258. Moreover, the figures for the relative viability with Zebularine + Phenformin (first compound 31.62 µM) and with Zebularine + Phenformin (first compound 100 µM) were 0.327 and 0.292, respectively.
